Results published in PubChem BioAssay (NCI).
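The compound was tested at five concentrations on cells cultured in 96-well plates, with a 48-hour exposure period. Definition used: TGI = concentration required for complete inhibition of growth.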

Experiments:
Assay in all cases: NCI anticancer screen, dose series, 48 h
[1] = system: SK-MEL-28 melanoma
[2] = system: TK-10 renal
[3] = system: A549 NSCLC
[4] = system: CCRF-CEM leukemia
[5] = system: HCT-15 colon
[6] = system: HCT-116 colon
[7] = system: BT-549 breast
[8] = system: MALME-3M melanoma
[9] = system: SK-MEL-5 melanoma
[10] = system: HS 578T breast
[11] = system: OVCAR-3 ovarian
[12] = system: HL-60(TB) leukemia
[13] = system: SK-OV-3 ovarian
[14] = system: ACHN renal
[15] = system: SNB-75 CNS
[16] = system: K-562 leukemia
[17] = system: OVCAR-5 ovarian
[18] = system: NCI-H23 lung
[19] = system: RPMI-8226 leukemia
[20] = system: NCI/ADR-RES ovarian

SMILES | TGI [1] [µM] | TGI [2] [µM] | TGI [3] [µM] | TGI [4] [µM] | TGI [5] [µM] | TGI [6] [µM] | TGI [7] [µM] | TGI [8] [µM] | TGI [9] [µM] | TGI [10] [µM] | TGI [11] [µM] | TGI [12] [µM] | TGI [13] [µM] | TGI [14] [µM] | TGI [15] [µM] | TGI [16] [µM] | TGI [17] [µM] | TGI [18] [µM] | TGI [19] [µM] | TGI [20] [µM]
CNC(=O)CCCNC(=O)CCCC(=O)OC | > 100 | > 100 | > 100 | > 100 | > 100 | > 100 | > 100 | > 100 | > 100 | > 100 | > 100 | > 100 | > 100 | > 100 | > 100 | > 100 | > 100 | > 100 | > 100 | > 100
O=C1CSC(c2ccccc2O)N1c1ccc(Oc2ccc(Cl)cc2)c(Cl)c1 (stereo not given) | 57.4 | > 100 | 49.3 | 65.1 | 46.9 | 28.6 | 34.9 | 30.2 | 33.8 | 38 | 62.4 | 51.2 | 47.9 | 94 | 47.3 | > 100 | 81.8 | 46.6 | 89.1 | 48.4
CC(=O)NCCCCN(CCCNC(C)=O)C(=O)OCc1ccccc1 | > 100 | > 100 | > 100 | > 100 | > 100 | > 100 | > 100 | > 100 | > 100 | > 100 | > 100 | > 100 | > 100 | > 100 | > 100 | > 100 | > 100 | > 100 | > 100 | > 100
O=C1C=C(C2=C(C3=CC(=O)c4ccccc4C3=O)C(=O)c3ccccc3C2=O)C(=O)c2ccccc21 | 29.8 | 21.8 | 27 | 1.43 | 28.9 | 20.5 | 28.9 | 4.82 | 23.9 | 40 | 12.9 | 3.68 | 66.5 | 37.9 | 35.3 | > 39.5 | 25.6 | 19.7 | 12.2 | 36.4
CCN1C[C@]2(C)CC[C@H](OC)C34C5C[C@@H]6[C@@H](OC)C[C@@](OC)(C5[C@H]6OCc5ccccc5)C(C13)[C@H](OC(C)=O)[C@@H]42 (stereo not given in full) | > 100 | > 100 | > 100 | > 100 | > 100 | > 100 | > 100 | > 100 | > 100 | > 100 | > 100 | > 100 | > 100 | > 100 | 36 | > 100 | > 100 | > 100 | > 100 | > 100
C#CCNC(=O)NC(CCCCNC(=O)OCc1ccccc1)C(=O)OCc1ccccc1 (stereo not given) | 38.5 | > 93 | > 100 | > 100 | > 100 | > 100 | > 100 | 61 | 35.1 | > 100 | > 100 | 46.7 | > 100 | > 100 | 37.3 | > 100 | > 100 | > 100 | 70.9 | > 100
c1ccc(C2=C(c3ccccc3)Sc3nnc(CCCCCCCCc4nnc5n4NC(c4ccccc4)=C(c4ccccc4)S5)n3N2)cc1 | > 100 | > 100 | > 100 | 72.4 | > 100 | > 100 | > 100 | > 100 | > 100 | > 100 | > 100 | 37.2 | > 100 | > 100 | > 100 | > 100 | > 100 | > 100 | > 100 | > 100
